In the test the target is T1, Recombinant human oxytocin receptors (Homo sapiens, UniProt P30559).
T1 construct: expressed in transfected cells; host or cells: CHO cells
T1 sequence (P30559 1-389): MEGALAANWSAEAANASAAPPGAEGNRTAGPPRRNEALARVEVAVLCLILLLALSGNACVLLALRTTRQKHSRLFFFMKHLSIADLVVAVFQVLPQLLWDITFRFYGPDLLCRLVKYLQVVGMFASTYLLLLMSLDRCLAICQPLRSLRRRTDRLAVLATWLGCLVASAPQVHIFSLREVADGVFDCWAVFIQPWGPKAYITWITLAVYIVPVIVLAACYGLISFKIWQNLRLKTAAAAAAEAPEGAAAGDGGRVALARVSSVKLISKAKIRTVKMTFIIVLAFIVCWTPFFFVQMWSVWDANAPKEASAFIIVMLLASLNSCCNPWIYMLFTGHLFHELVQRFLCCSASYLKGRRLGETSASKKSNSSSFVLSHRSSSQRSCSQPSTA
Description: Oxytocin receptor binding assay, [125I]-oxytocin, membrane fraction of CHO cells. The conditions noted are these: receptors expressed in CHO cells; [125I]-oxytocin displacement; read-out: inhibition constant Ki. On the procedure:
Recombinant human oxytocin receptors were expressed in CHO cells using standard molecular biological techniques. A membrane fraction was prepared and incubated in the presence of [^125I]-oxytocin and varying concentrations of equivalent heptapeptide analogue. Membranes were then isolated by filtration and counted for radioactivity to determine oxytocin binding. An inhibition constant Ki was determined for the analogue.

This passage reports Ki results from patent publication US7816489B2, “Methods for making intermediates and oxytocin analogues” (Ferring B.V., priority 2002, dated 2010).

The Ki is the dissociation constant of the complex between target and ligand, obtained from inhibition or displacement. For the compound `CC[C@@H](C)[C@@H]1NC(=O)[C@H]([C@@H](C)CC)NC(=O)[C@@H](Cc2c[nH]c3ccccc23)NC(=O)CCSCC[C@@H](C(=O)N(C)[C@H](CO)CCCN)NC(=O)[C@H](CC(N)=O)NC1=O` [IV], the Ki amounted to 100 pM.
